Source: ChEMBL document CHEMBL1201862, “PubChem BioAssay data set” (2004)
Calls of active or inactive are those of the source. No stated cut-off is given here; in the data, actives have a measured IC50 and inactives only a lower limit.

Molecular target: Envelope glycoprotein gp160 (Human immunodeficiency virus 1, UniProt Q6QLK5)
Experiment: inhibitors of HIV fusion peptide binding, primary screen, biochemical, uHTS, fluorescence dequenching (AID 1986)

Chain of Envelope glycoprotein gp160 (Q6QLK5 whole entry, the tested form may be a part): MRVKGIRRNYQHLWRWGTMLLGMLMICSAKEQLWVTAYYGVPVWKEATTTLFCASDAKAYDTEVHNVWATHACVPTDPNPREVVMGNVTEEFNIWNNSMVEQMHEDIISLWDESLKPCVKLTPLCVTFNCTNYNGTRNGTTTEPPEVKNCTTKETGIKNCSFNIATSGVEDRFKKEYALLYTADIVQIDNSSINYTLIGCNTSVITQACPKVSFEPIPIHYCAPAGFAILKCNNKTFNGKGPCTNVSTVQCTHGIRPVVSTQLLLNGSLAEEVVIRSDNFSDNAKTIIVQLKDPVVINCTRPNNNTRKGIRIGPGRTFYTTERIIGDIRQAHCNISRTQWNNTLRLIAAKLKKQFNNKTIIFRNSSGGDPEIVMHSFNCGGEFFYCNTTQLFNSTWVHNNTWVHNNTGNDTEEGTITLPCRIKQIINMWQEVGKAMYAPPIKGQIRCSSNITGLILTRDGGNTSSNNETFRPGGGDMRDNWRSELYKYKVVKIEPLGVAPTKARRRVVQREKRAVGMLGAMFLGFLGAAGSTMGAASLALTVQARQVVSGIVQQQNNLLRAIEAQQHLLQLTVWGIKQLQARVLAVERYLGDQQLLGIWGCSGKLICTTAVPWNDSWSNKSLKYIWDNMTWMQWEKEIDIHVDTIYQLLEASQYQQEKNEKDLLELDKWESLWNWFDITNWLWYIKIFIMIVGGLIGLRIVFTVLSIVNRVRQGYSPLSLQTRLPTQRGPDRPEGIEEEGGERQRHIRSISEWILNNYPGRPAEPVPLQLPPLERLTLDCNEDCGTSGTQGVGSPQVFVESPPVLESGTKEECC

Row | Structure (SMILES) | IC50
1 | O=C(O)c1[nH]c2ccccc2c1C(c1ccccc1)c1c(C(=O)O)[nH]c2ccccc12 | 14 µM (active)
2 | Cc1sc(-n2c(C)cc(/C=C3\SC(=S)NC3=O)c2C)c(C#N)c1C | 24.1 µM (active)
3 | O=C(O)C1Nc2ccc(Br)cc2C2C=CCC12 (centres undefined) | 10.9 µM (active)
4 | CCc1ccc(S(=O)(=O)/N=C2\C=C(NS(=O)(=O)c3ccccc3)C(=O)c3ccccc32)cc1 | 19.7 µM (active)
